Target: Potassium voltage-gated channel subfamily A member 3 (Homo sapiens, UniProt P22001)
Assay: Biological Assay
Experimental: The QPatch HT system (Sophion Bioscience A/S, Denmark) was used with the conventional whole-cell configuration. This system is an automated, chip-based planar patch clamp device allowing for up to 48 parallel independent experiments in one experimental assay run. Cells are added to each well and drawn by suction onto a small aperture to obtain a Gigaohm seal between the cell membrane and treated silicon surface, and whole-cell recordings initiated after access is achieved by suction and/or voltage pulses. The QPatch HT uses static perfusion, whereby a small volume of recording solution or drug is added to a reservoir on the chip and the solution perfuses across the cell through quartz-lined microfluidic channels; this solution is removed by capillary action when the next sample application is made.CHO-Kv1.3 cells were prepared for experiments by dissociation from T175 cell culture flasks using trypsin-EDTA (0.05%), cells were kept in serum free media in the cell hotel on board the QPatch HT. These cells were sampled, washed and re-suspended in extracellular recording solution by the QPatch HT immediately before application to the recording well site on the chip. Experiments were performed using the following solutions; extracellular solution contained (in mM); 150 NaCl, 10 KCl, 1 MgCl2, 3 CaCl2), 10 Glucose and 10 HEPES (pH 7.4, NaOH) and intracellular solution contained (in mM); 20 KCl, 120 KF, 10 HEPES, 10 EGTA, 5 ATP (pH 7.2, KOH).The potency (Inhibitory Concentration 50%, IC50) of synthesized compounds against Kv1.3 was determined from concentration-response relationships established by cumulatively applying four escalating concentrations of test compound to an individual cell and a minimum of N≥3 individual cells of data per compound were used to generate the IC50 value.

Potassium voltage-gated channel subfamily A member 3, sequence (P22001 whole entry): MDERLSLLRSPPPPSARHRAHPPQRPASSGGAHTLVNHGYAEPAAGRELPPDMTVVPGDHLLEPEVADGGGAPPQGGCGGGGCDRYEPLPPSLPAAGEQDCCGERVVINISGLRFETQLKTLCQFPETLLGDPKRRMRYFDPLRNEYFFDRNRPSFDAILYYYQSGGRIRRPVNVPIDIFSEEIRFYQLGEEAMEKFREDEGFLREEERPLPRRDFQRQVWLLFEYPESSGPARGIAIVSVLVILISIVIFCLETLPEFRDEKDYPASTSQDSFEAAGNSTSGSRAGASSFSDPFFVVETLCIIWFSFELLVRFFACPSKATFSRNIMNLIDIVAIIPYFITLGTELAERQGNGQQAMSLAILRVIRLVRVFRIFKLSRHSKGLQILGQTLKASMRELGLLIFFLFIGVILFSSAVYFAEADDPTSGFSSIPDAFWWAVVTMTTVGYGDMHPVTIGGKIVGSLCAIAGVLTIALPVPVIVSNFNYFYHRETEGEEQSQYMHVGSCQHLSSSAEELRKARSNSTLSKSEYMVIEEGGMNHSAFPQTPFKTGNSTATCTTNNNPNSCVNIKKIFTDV

SMILES | IC50 [nM]
CC1(C)N=C(C23CC(N(Cc4ccc(Cl)c(F)c4)S(=O)(=O)c4ccccc4)(C2)C3)N[C@H]1C(=O)N1CCC[C@H](C(F)(F)F)C1 (racemic) [US12128028, Example 173] | 103
CC[C@@H]1N=C(C23CC(N(Cc4ccc(C(F)(F)F)cc4)S(=O)(=O)c4ccc(F)cc4)(C2)C3)N[C@@]1(C)C(=O)NCCC(F)(F)F (racemic) [US12128028, Example 235] | 212
CC[C@H]1N=C(C23CC(N(Cc4ccc(C(F)(F)F)cc4)S(=O)(=O)c4ccc(F)cc4)(C2)C3)N[C@@]1(C)C(=O)NCCC(F)(F)F (racemic) [US12128028, Example 259] | 365
